Experiment [1] concerns human Type I GHSR. In words: Aequorin bioluminescence assay in Xenopus oocytes, human Type I GHSR. As to conditions: human Type I cRNA in oocytes; tested from 1 μM down. The format is cell-based. The protocol:
Xenopus laevis oocytes were isolated and injected using standard methods previously described by Arena, et. al. 1991, Mol. Pharmacol. 40, 368-374, which is hereby incorporated by reference. Adult female Xenopus Laevis frogs (purchased from Xenopus One, Ann Arbor, Mich.) were anesthetized with 0.17% tricaine methanesulfonate and the ovaries were surgically removed and placed in a 60 mm culture dish (Falcon) containing OR-2 medium without calcium (82.5 mM NaCl, 2 mM KCl, 2.5 mM sodium pyruvate, 1 mM MgCl2, 100 μ/ml penicillin, 1 mg/ml streptomycin, 5 mM HEPES, pH=7.5; ND-96 from Specialty Media, NJ). Ovarian lobes were broken open, rinsed several times, and oocytes were released from their sacs by collagenase A digestion (Boehringer-Mannheim; 0.2% for 2-3 hours at 18° C.) in calcium-free OR-2. […]
The ABA requires injection of library pool cRNA (25 ng/egg for pool sizes of 500 to 10,000) with aequorin cRNA (2 ng/egg) supplemented with the G-protein alpha subunit Gα11 (2 ng/egg). […] Polymerase chain reaction (PCR) was utilized to generate a DNA fragment corresponding to the open reading frame (ORF) of the aequorin cDNA with an optimized Kosak translational initiation sequence (Inouye, S. et. al., 1985, Proc. Natl. Acad. Sci. USA 82:3154-3158). […]

Experiment [2] concerns the target T1, swine growth hormone secretagogue receptor (Type I, clone 7-3) (Sus scrofa, UniProt Q95254).
T1 construct: translation of the longest ORF encoded in clone 7-3 encodes a protein of 353 amino acids; expressed in transfected cells; host or cells: COS-7 (transient, Lipofectamine)
In words: [35S]-Compound A binding to COS-7 cell membranes transfected with swine GHSR clone 7-3. The protocol: Mammalian cells (COS-7) were transfected with GHSR expression plasmids using Lipofectamine (GIBCO-BRL; Hawley-Nelson, 1993, Focus 15:73). Transfections were performed in 60 mm dishes on 80% confluent cells (approximately 4×10^5 cells) with 8 μg of Lipofectamine and 32 μg of GHSR plasmid DNA.
Binding of [^35 S]-Compound A to swine pituitary membranes and crude membranes prepared from COS-7 cells transfected with GHSR expression plasmids was conducted. Crude cell membranes from COS-7 transfectants were prepared on ice, 48 hrs. post-transfection. Each 60 mm dish was washed twice with 3 ml of PBS, once with 1 ml homogenization buffer (50 mM Tris-HCl [pH 7.4], 5 mM MgCl2, 2.5 mM EDTA, 30 μg/ml bacitracin). 0.5 ml of homogenization buffer was added to each dish, cells were removed by scraping and then homogenized using a Polytron device (Brinkmann, Syosset, N.Y.; 3 bursts of 10 sec. at setting 4). The homogenate was then centrifuged for 20 min. at 11,000×g at 0° C. and the resulting crude membrane pellet (chiefly containing cell membranes and nuclei) was resuspended in homogenization buffer supplemented with 0.06% BSA (0.1 ml/60 mm dish) and kept on ice. Binding reactions were performed at 20° C. for 1 hr. in a total volume of 0.5 ml containing: 0.1 ml of membrane suspension, 10 μl of [^35 S]-Compound A (0.05 to 1 nM; specific activity approximately 900 Ci/mmol), 10 μl of competing drug and 380-390 μl of homogenization buffer. Bound radioligand was separated by rapid vacuum filtration (Brandel 48-well cell harvester) through GF/C filters pretreated for 1 hr. with 0.5% polyethylenimine. After application of the membrane suspension to the filter, the filters were washed 3 times with 3 ml each of ice cold 50 mM Tris-HCl [pH 7.4], 10 mM MgCl2, 2.5 mM EDTA and 0.015% Triton X-100, and the bound radioactivity on the filers was quantitated by scintillation counting. Specific binding (>90% of total) is defined as the difference between total binding and non-specific binding conducted in the presence of 50 nM unlabeled Compound A.

The subject of experiment [3] is rat GHSR type Ia. In words: Aequorin bioluminescence in transfected 293-AEQ17 (HEK-293) cells, rat GHSR. The format is cell-based. As to conditions: three replicate samples; mobilization of intracellular calcium. The protocol: Functional activity of the ORF construct was assessed by transfecting (using lipofectamine; GIBCO/BRL) 5 μg of plasmid DNA into the aequorin expressing reporter cell line (293-AEQ17) cultured in 60 mm dishes. Following approximately 40 hours of expression the aequorin in the cells was charged for 2 hours with coelenterazine, the cells were harvested, washed and pelleted by low speed centrifugation into luminometer tubes. Functional activity was determined by measuring Compound A dependent mobilization of intracellular calcium and concommitant calcium induced aequorin bioluminescence.
A general note: A change in cytosolic calcium serves as a functional read-out for many receptors and channels.

T1 sequence (Q95254 14-366): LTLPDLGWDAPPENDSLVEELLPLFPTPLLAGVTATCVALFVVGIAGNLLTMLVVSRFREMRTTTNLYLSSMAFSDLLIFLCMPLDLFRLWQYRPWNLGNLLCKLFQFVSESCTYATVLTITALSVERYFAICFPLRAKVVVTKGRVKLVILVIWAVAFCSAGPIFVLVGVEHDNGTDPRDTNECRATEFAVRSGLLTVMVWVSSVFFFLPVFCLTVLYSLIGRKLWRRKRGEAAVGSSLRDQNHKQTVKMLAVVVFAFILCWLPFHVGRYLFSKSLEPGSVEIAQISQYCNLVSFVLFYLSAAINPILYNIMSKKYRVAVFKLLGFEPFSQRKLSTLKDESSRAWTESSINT

Take `CC(C)(N)C(=O)N[C@H](COCc1ccccc1)C(=O)N1CCC2(CC1)CN(S(C)(=O)=O)c1ccccc12` [Compound A, (N-[1(R)-[1,2-dihydro-1-methanesulfonlylspiro[3H-indole-3,4'-piperidin]-1'-yl)carbonyl]-2-(phenylmethyloxy)-ethyl]-2-amino-2-methyl-propanamide]: the “lowest Compound A concentration giving a response” value in experiment [1] is 0.1 nM. The inhibition at 0.05 µM in experiment [2] (1 h, 50 nM unlabeled Compound A, read-out: specific binding displaced by unlabeled Compound A) was above 90%. In addition, the “saturable binding, Bmax” value in experiment [2] (clone 7-3 expressed transiently in COS-7 cells) is ~ 80 fmol/mg protein. The Kd (in general, the equilibrium constant for the complex coming apart) in experiment [2] (clone 7-3 expressed transiently in COS-7 cells, read-out: high affinity binding, KD) was around 0.2 nM. For the same compound, the “specific binding of total” value in experiment [2] (nonspecific in presence of 50 nM unlabeled Compound A) is listed as above 90%. Also, the “Compound A induced luminescent response (in words)” value in experiment [3] is recorded as “Compound A induced luminescent responses”.

The values are drawn from patent US6242199A, “Assays for growth hormone secretagogue receptors” (Merck & Co., Inc., priority 1998, dated 2001).
